Data taken from the supplement of paper PMC10307832.

Assays:
Assay in all cases: relative viability (nuclei count vs DMSO), 5 days (fraction); higher = more cells survive
[1] = compound: COc1cc2ncn(-c3cc(OCc4ccccc4C(F)(F)F)c(C(N)=O)s3)c2cc1OC + COc1cccc2cc(-c3nc([C@H]4CC[C@H](C(=O)O)CC4)n4ncnc(N)c34)[nH]c12 [OSI-027] (partner 0.5 µM)
In short: (§1)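 Dosing by pin tool came one day after lung cancer cell lines were seeded in 1536-well plates, using either one drug or a fixed anchor-drug dose plus five library-drug doses (not always all listed) in √10 steps. After 5 days, nuclei were counted on 4× images. Relative viability is treated-well nuclei count divided by vehicle-well nuclei count, and values are medians of duplicate plates.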

[2] = compound: COc1cc2ncn(-c3cc(OCc4ccccc4C(F)(F)F)c(C(N)=O)s3)c2cc1OC + CS(=O)(=O)CCNCc1ccc(-c2ccc3ncnc(Nc4ccc(OCc5cccc(F)c5)c(Cl)c4)c3c2)o1 [Lapatinib] (partner 2 µM)
In short: as §1

[3] = compound: COc1cc2ncn(-c3cc(OCc4ccccc4C(F)(F)F)c(C(N)=O)s3)c2cc1OC + C[C@]1(O)C[C@@H](c2nc(-c3ccc4ccc(-c5ccccc5)nc4c3)c3c(N)nccn32)C1 [Linsitinib] (partner 1 µM)
In short: as §1

[4] = compound: COc1cc2ncn(-c3cc(OCc4ccccc4C(F)(F)F)c(C(N)=O)s3)c2cc1OC + Cc1nc(NC(=O)N2CCC[C@H]2C(N)=O)sc1-c1ccnc(C(C)(C)C(F)(F)F)c1 [Alpelisib] (partner 2 µM)
In short: as §1

Cell Line	relative viability ([1]; first compound 0.05 µM)	relative viability ([1]; first compound 0.1581 µM)	relative viability ([1]; first compound 0.5 µM)	relative viability ([1]; first compound 1.581 µM)	relative viability ([1]; first compound 5 µM)	relative viability ([2]; first compound 0.05 µM)	relative viability ([2]; first compound 0.1581 µM)	relative viability ([2]; first compound 0.5 µM)	relative viability ([2]; first compound 1.581 µM)	relative viability ([2]; first compound 5 µM)	relative viability ([3]; first compound 0.05 µM)	relative viability ([3]; first compound 0.1581 µM)	relative viability ([3]; first compound 0.5 µM)	relative viability ([3]; first compound 1.581 µM)	relative viability ([3]; first compound 5 µM)	relative viability ([4]; first compound 0.05 µM)	relative viability ([4]; first compound 0.1581 µM)	relative viability ([4]; first compound 0.5 µM)	relative viability ([4]; first compound 1.581 µM)	relative viability ([4]; first compound 5 µM)
NCI-H1666	0.895	0.778	0.543	0.362	0.366	0.905	0.674	0.298	0.229	0.325	0.821	0.953	0.37	0.219	0.248	1.22	0.834	0.493	0.29	0.292
NCI-H1734	0.619	0.688	0.489	0.26	0.194	1.14	0.986	0.792	0.241	0.186	0.946	0.956	0.644	0.309	0.215	0.784	0.721	0.571	0.334	0.224
NCI-H1755	0.785	0.688	0.467	0.314	0.266	1.03	1.09	0.868	0.33	0.281	0.995	1.02	0.799	0.416	0.349	0.945	0.953	0.716	0.352	0.262
NCI-H1792	0.815	0.661	0.315	0.269	0.251	0.935	0.834	0.868	0.24	0.0845	0.517	0.531	0.301	0.216	0.148	0.732	0.659	0.501	0.31	0.364
NCI-H1793	0.3	0.299	0.161	0.144	0.116	0.741	0.84	0.409	0.306	0.209	0.928	0.847	0.763	0.248	0.145	0.611	0.745	0.394	0.22	0.191
NCI-H1915	0.657	0.543	0.321	0.136	0.114	1.03	0.961	0.803	0.134	0.0963	1.09	1.05	0.795	0.169	0.106	1.05	0.987	0.775	0.161	0.104
NCI-H1944	0.589	0.396	0.254	0.14	0.112	0.972	1	0.729	0.165	0.114	1.2	1.15	0.923	0.257	0.171	0.871	0.901	0.619	0.173	0.118
NCI-H1975	0.66	0.547	0.328	0.109	0.1	0.862	0.809	0.411	0.189	0.161	1.01	0.877	0.531	0.207	0.196	0.645	0.609	0.359	0.153	0.152
